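In this assay, cells in 96-well plates receive the compound at five concentrations for 48 hours. Endpoints are linearly interpolated between the surrounding concentrations. GI50: concentration for 50% inhibition of growth.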 Active and inactive are the calls of the source. Rule as the data show it: active = GI50 up to about 1.1 µM and inactive = higher.
Key:
Test in all cases: NCI tumour cell line growth inhibition, 48 h
SF-295 = system: SF-295
SK-MEL-5 = system: SK-MEL-5
SF-268 = system: SF-268
EKVX = system: EKVX
OVCAR-8 = system: OVCAR-8
HT-29 = system: HT-29
IGROV-1 = system: IGROV-1
TK-10 = system: TK-10
DU-145 = system: DU-145
CAKI-1 = system: CAKI-1
BT-549 = system: BT-549
HCT-15 = system: HCT-15
HOP-62 = system: HOP-62
SNB-75 = system: SNB-75
COLO 205 = system: COLO 205
NCI/ADR-RES = system: NCI/ADR-RES
RXF 393 = system: RXF 393
UACC-62 = system: UACC-62
SNB-19 = system: SNB-19
CCRF-CEM = system: CCRF-CEM

Structure (SMILES)	GI50 (SF-295)	GI50 (SK-MEL-5)	GI50 (SF-268)	GI50 (EKVX)	GI50 (OVCAR-8)	GI50 (HT-29)	GI50 (IGROV-1)	GI50 (TK-10)	GI50 (DU-145)	GI50 (CAKI-1)	GI50 (BT-549)	GI50 (HCT-15) [µM]	GI50 (HOP-62)	GI50 (SNB-75)	GI50 (COLO 205)	GI50 (NCI/ADR-RES)	GI50 (RXF 393)	GI50 (UACC-62)	GI50 (SNB-19)	GI50 (CCRF-CEM)
S=C(Nc1ccc2cn[nH]c2c1)Nc1ccc2cn[nH]c2c1	87.3 µM (inactive)	45.1 µM (inactive)	> 100 µM (inactive)	54 µM (inactive)	72.3 µM (inactive)	50 µM (inactive)	46.8 µM (inactive)	48.1 µM (inactive)	> 100 µM (inactive)	> 100 µM (inactive)	27.6 µM (inactive)	63.5	> 100 µM (inactive)	53 µM (inactive)	44.8 µM (inactive)	> 100 µM (inactive)	> 100 µM (inactive)	48.5 µM (inactive)	> 100 µM (inactive)	
Clc1ccccc1C(Nc1ncccn1)Nc1ncccn1	> 100 µM (inactive)	> 100 µM (inactive)	> 100 µM (inactive)	> 100 µM (inactive)	> 100 µM (inactive)	> 100 µM (inactive)	> 100 µM (inactive)	> 100 µM (inactive)	> 100 µM (inactive)	> 100 µM (inactive)	> 100 µM (inactive)	> 100	> 100 µM (inactive)	47 µM (inactive)	> 100 µM (inactive)	> 100 µM (inactive)	> 100 µM (inactive)	> 100 µM (inactive)	> 100 µM (inactive)	
COc1ccc(CCN2C(=O)C=CC2=O)cc1OC	17.7 µM (inactive)	17.3 µM (inactive)	22.1 µM (inactive)	19.2 µM (inactive)	19.8 µM (inactive)	6.31 µM (inactive)	18 µM (inactive)	15.2 µM (inactive)	16.5 µM (inactive)	13.3 µM (inactive)	17.5 µM (inactive)	1.87	22.5 µM (inactive)	20.5 µM (inactive)	1.83 µM (inactive)	25.4 µM (inactive)	4.9 µM (inactive)	17.3 µM (inactive)	19.5 µM (inactive)	1.85 µM (inactive)
Cc1cc2c(cc1C)C(=O)C1(C2)Cc2c(C)ccc(C)c2C1=O (centres undefined)	> 100 µM (inactive)	> 100 µM (inactive)	> 100 µM (inactive)	> 100 µM (inactive)	> 100 µM (inactive)		98.4 µM (inactive)	> 100 µM (inactive)	> 100 µM (inactive)	> 100 µM (inactive)	> 100 µM (inactive)	> 100		> 100 µM (inactive)	> 100 µM (inactive)	> 100 µM (inactive)	84.7 µM (inactive)	> 100 µM (inactive)	> 100 µM (inactive)	> 100 µM (inactive)
O/N=C1\Nc2ccccc2OCc2cc(Br)c(Br)cc2COc2ccccc2N\C1=N/O	16.5 µM (inactive)	12.9 µM (inactive)	8.91 µM (inactive)	15.2 µM (inactive)	10.4 µM (inactive)	7.85 µM (inactive)	2.79 µM (inactive)	25 µM (inactive)	13.6 µM (inactive)	12.9 µM (inactive)	15.1 µM (inactive)	5.86	15.5 µM (inactive)	20.2 µM (inactive)	7.08 µM (inactive)	20.2 µM (inactive)	16.6 µM (inactive)	15.3 µM (inactive)	10.7 µM (inactive)	4.98 µM (inactive)
COC(=O)C1=C(OC(=O)/C=C/c2ccc(Cl)cc2)C(C(=O)OC)[C@]2(O)[C@@H](C(=O)OC)[C@H]1C[C@@H](c1ccccc1)[C@@H]2C(=O)OC (some centres undefined)	9.23 µM (inactive)	4.55 µM (inactive)	4.66 µM (inactive)	3.85 µM (inactive)	3.95 µM (inactive)	7.74 µM (inactive)	3.18 µM (inactive)	> 30.3 µM (inactive)	7.31 µM (inactive)	11.1 µM (inactive)	6.55 µM (inactive)	3.66	> 57.4 µM (inactive)	12.3 µM (inactive)	4.43 µM (inactive)	3.52 µM (inactive)	9.29 µM (inactive)	7.45 µM (inactive)	6.65 µM (inactive)	3.31 µM (inactive)
CNC(=O)CCC(NC(=O)OC(C)(C)C)C(=O)NC(Cc1ccc(NC(=O)CCCCC(C)=O)cc1)C(=O)NCC(=O)NC (centres undefined)	> 100 µM (inactive)	> 100 µM (inactive)	> 100 µM (inactive)	> 100 µM (inactive)	> 100 µM (inactive)	> 100 µM (inactive)	> 100 µM (inactive)	> 100 µM (inactive)	> 100 µM (inactive)	> 100 µM (inactive)	> 100 µM (inactive)	> 100	> 100 µM (inactive)	> 100 µM (inactive)	> 100 µM (inactive)	> 100 µM (inactive)	> 100 µM (inactive)	> 100 µM (inactive)	> 100 µM (inactive)	
CC(=O)OCC12C(=O)C[C@@H](C)C3(CC(c4ccoc4)OC3=O)C1CCC(OC(C)=O)C21CO1 (some centres undefined)	> 100 µM (inactive)	> 100 µM (inactive)	> 100 µM (inactive)		> 100 µM (inactive)	> 100 µM (inactive)	> 100 µM (inactive)	> 100 µM (inactive)	> 100 µM (inactive)	> 100 µM (inactive)	> 100 µM (inactive)	> 100	> 100 µM (inactive)	> 100 µM (inactive)	> 100 µM (inactive)	> 100 µM (inactive)	87.3 µM (inactive)	> 100 µM (inactive)	> 100 µM (inactive)	
COc1cc2cc(C(=O)N3CC(CCl)c4c3cc(NCCN)c3ccccc43)[nH]c2c(OC)c1OC (centres undefined)	< 0.01 µM (active)	< 0.01 µM (active)	< 0.01 µM (active)	< 0.0126 µM (active)	< 0.01 µM (active)		< 0.01 µM (active)	< 0.01 µM (active)	< 0.01 µM (active)	< 0.01 µM (active)	0.0333 µM (active)	0.0105	< 0.01 µM (active)	0.0102 µM (active)	0.0112 µM (active)	< 0.01 µM (active)	< 0.01 µM (active)	< 0.01 µM (active)	< 0.01 µM (active)	
CC1=NNC(=O)C1C1CC(c2c[nH]c3ccccc23)=NNC1=S (centres undefined)	> 100 µM (inactive)	> 100 µM (inactive)	> 100 µM (inactive)	28.4 µM (inactive)	> 100 µM (inactive)	> 100 µM (inactive)		> 100 µM (inactive)	> 100 µM (inactive)	> 100 µM (inactive)	50.2 µM (inactive)	39.7	> 100 µM (inactive)	> 100 µM (inactive)	72.1 µM (inactive)	> 100 µM (inactive)	> 100 µM (inactive)	> 100 µM (inactive)	> 100 µM (inactive)	28.6 µM (inactive)
OC(C#CCN1CCCC1)(c1ccccc1)c1ccccc1Cl (centres undefined)	24.6 µM (inactive)	17.7 µM (inactive)	44.2 µM (inactive)	48.5 µM (inactive)	33.8 µM (inactive)	16.5 µM (inactive)	14.8 µM (inactive)	50.8 µM (inactive)	> 100 µM (inactive)	24.8 µM (inactive)	46.2 µM (inactive)	68.5	19.5 µM (inactive)	59.4 µM (inactive)	12.5 µM (inactive)	23.3 µM (inactive)	46.8 µM (inactive)	27.2 µM (inactive)		33.6 µM (inactive)

From ChEMBL document CHEMBL1201862, “PubChem BioAssay data set” (2004)
